Ends that are not written are not given here.

The text below walks through data of PMC12564946, “A Stable Delivery System for Meretrix meretrix Derived Immunomodulatory Peptide (QLNWD): Fabrication and Characterization of Glycosylated Protein Nanoparticle” (Marine Drugs, 2025).

The data set can be described thus: In vitro release of QLNWD, dialysis bag method in enzyme-free SGF/SIF. In kind it is in vitro ADME. Conditions: 37 °C, 120 rpm. On the procedure: The release profile of QLNWD in NPs was evaluated according to a published dialysis method. A 2 mL aliquot of QLNWD (1 mg/mL) nanoparticle solution was introduced into a presoaked dialysis bag (molecular weight cutoff of 3500 Da). The bag was immersed in 20 mL of simulated gastric fluid (SGF, enzyme-free), which had been preheated at 37 °C for 30 min and adjusted to pH 2. The entire system was incubated at 37 °C under continuous agitation at 120 rpm. After 2 h, the pH was adjusted to 7.0, and 20 mL of simulated intestinal fluid (SIF, enzyme-free), also preheated at 37 °C for 30 min and adjusted to pH 7.0, was added to the system. At predetermined intervals, 1 mL of the release medium was sampled and immediately replenished with an equal volume of fresh SGF/SIF. Samples without QLNWD served as the blank control, and the cumulative release was determined as follows:(2) Cumulative release (%)=(V0Cn+Ve∑1n−1Cn−1)/total QLNWD content×100 where V0 refers to the total volume of simulated gastric or intestinal fluid, Cn refers to the concentration of QLNWD at the nth time, and Ve refers to the volume of each sample.

In the case of QLNWD [QLNWD, Gln-Leu-Asn-Trp-Asp], the “Cumulative release of QLNWD” value reads like this: (12 h: 2 h enzyme-free SGF pH 2, then enzyme-free SIF pH 7.0, dialysis bag 3500 Da) 79.1%; (initial 2 h in enzyme-free SGF pH 2, dialysis bag 3500 Da, QLNWD 1 mg/mL) 38.1%.
